Results as given in patent US20220168392A1 (priority 2019, published 2022).
Square brackets hold non-standard residues; d marks the D form. * marks the point of attachment. 2Nal = N[C@@H](Cc1ccc2ccccc2c1)C(=O)O; Propionyl = CCC(=O)*; Sar = CNCC(=O)O

How the values were obtained:
Dog = experiment: Maximum platelet elevation relative to baseline in normal healthy dogs, single escalating doses; assay type: in vivo; parameters: key to pharmacodynamics (PD) effect class of the dose (beneficial effects on survival): **: large pharmacodynamics (PD) effect; *: modest effect; details: for Dog Max Platelet Ratio: TOX6985; for maximum platelet elevation: canine
From the text: The ratio of the maximum platelet counts to the baseline platelet counts following single escalating doses of RWJ-800088 to mice, rats, dogs, rhesus monkeys and human healthy volunteers is shown in Table 5. The dose required to achieve a 2-3.5-fold elevation in humans is ˜100-fold lower compared to mice, ˜1,000-fold lower compared to rats and >10,000-fold lower compared to canines and NHPs. […] The species differences in potency has been described for other TPO mimetics in the literature and is attributed to differences in receptor affinity (Erickson-Miller C L, et al. Discovery and characterization of a selective, nonpeptidyl thrombopoietin receptor agonist. Exp. Hematol. 2005; 33:85-93). […] It is discovered that the dose of RWJ-800088 that produces a survival benefit and protects against vascular and organ injury is the dose that produces a 2-4 fold elevation of platelets (Table 6).

[1] = test system: C3H/HeN male mice exposed to TBI; experiment: 30-day survival after TBI in C3H/HeN mice; assay type: in vivo, mouse; details: C3H/HeN M, 8.75 Gy, 3 mg/kg single dose, Pre −24 hr; for Survival treatment: 3 mg/kg
From the text: Total Body Irradiation (TBI). Mice were irradiated bilaterally in the Cobalt-60 gamma-irradiation facility at the AFRRI. These animals were placed in well-ventilated plexiglass chambers made specifically for irradiating mice. An alanine/Electron Spin Resonance (ESR) dosimetry system (American Society for Testing and Material Standard E 1607) was used to measure the dose rates in the cores of acrylic phantoms (3 inches long and 1 inch in diameter) located in all empty slots of the exposure rack in the plexiglass chamber. ESR signals were measured with a calibration curve based on standard calibration dosimeters provided by the National Institute of Standard and Technology (NIST, Gaithersburg, Md.). The calibration curve was verified by inter-comparison with the National Physical Laboratory (NPL) in the United Kingdom. The corrections applied to the measured dose rates in phantoms were for decay of the Co-60 source and for a small difference in mass-energy absorption coefficients for water and soft tissue at the Co-60 energy level. Kaplan-Meier survival curves were plotted using GraphPad software; and trend in survival is compared between vehicle and drug-treated group.
The survival efficacy of RWJ-800088 was tested in C57BL/6 (another strain of mice with different radiation sensitivity compared to CD2F1) in males and females. […] All animals in saline treated groups (males and females) died whereas there was no mortality in RWJ-800088 treated groups 30 days post-TBI. […] All animals in saline treated groups died whereas there was 92% survival observed in the RWJ-800088 (24 h pre-TBI) treated group 30 days post-TBI.

[2] = test system: subjects with cancer receiving platinum-based chemotherapy; experiment: Study NAP1002: cancer patients receiving platinum-based chemotherapy; assay type: in vivo, human
Method: In the second randomized, double-blind Phase 1 study (NAP1002), 46 subjects with cancer receiving platinum-based chemotherapy were enrolled into 3 cohorts: 12 subjects received 1.5 μg/kg RWJ-800088, 12 subjects received 2.25 μg/kg, 10 subjects received 3 μg/kg, and 12 subjects received placebo within 2 hours before administration of platinum-based chemotherapy on Day 1 of the first of 2 chemotherapy cycles. There was a 21-day interval between each chemotherapy cycle.

## methoxypolyethyleneglycol20000-propionyl-L-Isoleucyl-L-Glutamyl-Glycyl-L-Prolyl-L-Threonyl-L-Leucyl-L-Arginyl-L-Glutaminyl-L-2-Naphthylalanyl-L-Leucyl-L-Alanyl-L-Alanyl-L-Arginyl-Sarcosyl-Ne-(methoxypolyethyleneglycol20000-propionyl-L-Isoleucyl-L-Glutamyl-Glycyl-L-Prolyl-L-Threonyl-L-Leucyl-L-Arginyl-L-Glutaminyl-L-2-Naphthylalanyl-L-Leucyl-L-Alanyl-L-Alanyl-L-Arginyl-Sarcosyl-)-Lysinamide ({mPEG 20 kDa-Propionyl}-IEGPTLRQ[2Nal]LAAR[Sar]K-NH2; also: dimer: second identical mPEG-propionyl chain on Lys Nε of C-terminal lysinamide) [RWJ-800088]
Dog; Dog, dose 10000 μg/kg
  Average of the Maximum Platelet Elevation/Baseline Platelet Counts: 1.7
  pharmacodynamics (PD) effect class of the dose (beneficial effects on survival): *
Dog; dose 300 μg/kg
  Dog Max Platelet Ratio: 1.0 ± 0.3
Dog; dose 3000 μg/kg
  Dog Max Platelet Ratio: 1.4 ± 0.5
Dog; dose 10000 μg/kg
  Dog Max Platelet Ratio: 1.7 ± 0.5
Dog
  maximum platelet elevation: ~7.7 fold
Dog; listed as TPOm
  maximum platelet elevation: ~1.7 fold
[1]
  Survival Differential (Treatment-Vehicle): 92%
  Survival treatment: 92%
[1]; listed as TPOm
  Survival treatment: 92%
[2]; 1.5 μg/kg
  nadir and peak mean platelet counts vs placebo: similar
[2]; 1.5 μg/kg, each cycle
  day up to which mean platelet counts continued to decline: 15 days
[2]; 3 μg/kg
  platelet nadir and peak platelet counts, fold higher relative to placebo: approximately 2 fold
[2]; 3.0 μg/kg, both cycles
  day of peak mean platelet counts: 15 days
[2]; 1.5, 2.25, and 3 μg/kg
  serious adverse event of thrombocythemia (number): 1
[2]; 1.5, 2.25, and 3 μg/kg with platinum-based chemotherapy
  tolerability: well-tolerated
[2]; 2.25 and 3.0 μg/kg, each cycle
  day on which mean platelet counts were lowest: 10 days
[2]; 2.25 or 3.0 μg/kg
  nadir and peak platelet counts, fold higher than placebo: approximately 2 fold
[2]; Across cycles, 1.5 μg/kg
  Maximum Platelet Counts, GMR (Active/Placebo): 1.0
  Maximum Platelet Counts, Geometric Mean: 374760 µL⁻¹
  Minimum Platelet Counts, GMR (Active/Placebo): 0.6
  Minimum Platelet Counts, Geometric Mean: 34570 µL⁻¹
[2]; Across cycles, 2.25 μg/kg
  Maximum Platelet Counts, GMR (Active/Placebo): 1.6
  Maximum Platelet Counts, Geometric Mean: 574270 µL⁻¹
  Minimum Platelet Counts, GMR (Active/Placebo): 2.7
  Minimum Platelet Counts, Geometric Mean: 165790 µL⁻¹
[2]; Across cycles, 3.0 μg/kg
  Maximum Platelet Counts, GMR (Active/Placebo): 1.8
  Maximum Platelet Counts, Geometric Mean: 662940 µL⁻¹
  Minimum Platelet Counts, GMR (Active/Placebo): 2.2
  Minimum Platelet Counts, Geometric Mean: 134260 µL⁻¹
[2]; Cycle 1, 1.5 μg/kg
  Maximum Platelet Counts, GMR (Active/Placebo): 1.1
  Maximum Platelet Counts, Geometric Mean: 329180 µL⁻¹
  Minimum Platelet Counts, GMR (Active/Placebo): 0.5
  Minimum Platelet Counts, Geometric Mean: 46800 µL⁻¹
[2]; Cycle 1, 2.25 μg/kg
  Maximum Platelet Counts, GMR (Active/Placebo): 1.9
  Maximum Platelet Counts, Geometric Mean: 564360 µL⁻¹
  Minimum Platelet Counts, GMR (Active/Placebo): 2.3
  Minimum Platelet Counts, Geometric Mean: 217590 µL⁻¹
[2]; Cycle 1, 3.0 μg/kg
  Maximum Platelet Counts, GMR (Active/Placebo): 2.1
  Maximum Platelet Counts, Geometric Mean: 642690 µL⁻¹
  Minimum Platelet Counts, GMR (Active/Placebo): 2.0
  Minimum Platelet Counts, Geometric Mean: 188250 µL⁻¹
[2]; Cycle 2, 1.5 μg/kg
  Maximum Platelet Counts, GMR (Active/Placebo): 0.9
  Maximum Platelet Counts, Geometric Mean: 294150 µL⁻¹
  Minimum Platelet Counts, GMR (Active/Placebo): 0.9
  Minimum Platelet Counts, Geometric Mean: 76170 µL⁻¹
[2]; Cycle 2, 2.25 μg/kg
  Maximum Platelet Counts, GMR (Active/Placebo): 1.3
  Maximum Platelet Counts, Geometric Mean: 401870 µL⁻¹
  Minimum Platelet Counts, GMR (Active/Placebo): 2.2
  Minimum Platelet Counts, Geometric Mean: 177540 µL⁻¹
[2]; Cycle 2, 3.0 μg/kg
  Maximum Platelet Counts, GMR (Active/Placebo): 1.4
  Maximum Platelet Counts, Geometric Mean: 434100 µL⁻¹
  Minimum Platelet Counts, GMR (Active/Placebo): 2.2
  Minimum Platelet Counts, Geometric Mean: 179930 µL⁻¹
[2]; Day 42, 1.5 μg/kg
  Change From Baseline in Hemoglobin, Difference of LS Mean (SE) vs Placebo: 0.54 g/dL
  Change From Baseline in Hemoglobin, LS Mean (SE): −1.63 (0.50) g/dL
[2]; Day 42, 2.25 μg/kg
  Change From Baseline in Hemoglobin, Difference of LS Mean (SE) vs Placebo: 0.57 g/dL
  Change From Baseline in Hemoglobin, LS Mean (SE): −1.60 (0.42) g/dL
[2]; Day 42, 3.0 μg/kg
  Change From Baseline in Hemoglobin, Difference of LS Mean (SE) vs Placebo: 1.00 g/dL
  Change From Baseline in Hemoglobin, LS Mean (SE): −1.16 (0.47) g/dL
[2]; Day 42, 3.0-μg/kg group
  decrease of mean Hb concentration from baseline: 1.16 g/dL
[2]; Day 63, 1.5 μg/kg
  Change From Baseline in Hemoglobin, Difference of LS Mean (SE) vs Placebo: -0.75 g/dL
  Change From Baseline in Hemoglobin, LS Mean (SE): −2.98 (0.70) g/dL
[2]; Day 63, 2.25 μg/kg
  Change From Baseline in Hemoglobin, Difference of LS Mean (SE) vs Placebo: 0.68 g/dL
  Change From Baseline in Hemoglobin, LS Mean (SE): −1.55 (0.61) g/dL
[2]; Day 63, 3.0 μg/kg
  Change From Baseline in Hemoglobin, Difference of LS Mean (SE) vs Placebo: 0.79 g/dL
  Change From Baseline in Hemoglobin, LS Mean (SE): −1.44 (0.61) g/dL
[2]; Day 84, 1.5 μg/kg
  Change From Baseline in Hemoglobin, Difference of LS Mean (SE) vs Placebo: 0.05 g/dL
  Change From Baseline in Hemoglobin, LS Mean (SE): −1.88 (0.59) g/dL
[2]; Day 84, 2.25 μg/kg
  Change From Baseline in Hemoglobin, Difference of LS Mean (SE) vs Placebo: 0.03 g/dL
  Change From Baseline in Hemoglobin, LS Mean (SE): −1.90 (0.55) g/dL
[2]; Day 84, 3.0 μg/kg
  Change From Baseline in Hemoglobin, Difference of LS Mean (SE) vs Placebo: 1.13 g/dL
  Change From Baseline in Hemoglobin, LS Mean (SE): −0.80 (0.59) g/dL
[2]; Humans, Phase 1b study, whole wrapped cell: Protection against thrombocytopenia and anemia
  Effects: Protection against
[2]; lower doses (1.5, 2.25 μg/kg), both cycles
  day of mean peak platelet counts: 21 days
[2]; two subjects at 3.0 μg/kg, first cycle (stopping criteria)
  transient platelet increase, times the baseline: more than 3 times the baseline
